According to article PMC7147261, “Selective Antibacterial Activity and Lipid Membrane Interactions of Arginine-Rich Amphiphilic Peptides” (ACS Applied Bio Materials, 2020):
Ends that are not written are not given here.

How the values were obtained:
[1] = tested on: 161br human skin fibroblasts; assay: in vitro; assay type: cell-based; conditions: 72 h, 0.05 wt %
Description: (§1) The cytotoxicity of both R3F3 and R4F4 was examined. In vitro cell culture was conducted using 161Br (European Collection of Authenticated Cell Cultures, ECACC) cells, a human skin fibroblast cell line. Cells were cultured in EMEM (Eagle’s minimum essential medium), with 2 mM glutamine, enriched with 15% fetal bovine serum (FBS) and 1% nonessential amino acids (NEAA). Cells were maintained in a humidified atmosphere of 37 °C, 5% CO2.
(§2) Potential cytotoxicity effects were examined using the MTT (3-(4,5-dimethylthiazol-2-yl)-2,5-diphenyltetrazolium bromide) assay. The peptides were dissolved in complete media. Cells were seeded into a 96-well plate at 4 × 10^4 cells/mL and allowed to adhere for 24 h in 100 μL complete medium. After this, 100 μL of either complete media and/or peptide solution was added, to give either control solution, or solutions of peptide between the concentrations of 0.0625–4 mg/mL.
(§3) Cells were incubated for 67 h. After this, 20 μL MTT (5 mg/mL, in PBS) was added to each well plate and allowed to incubate for 5 h. After a further 5 h (72 h total), the solution was removed from the wells and replaced with 100 μL of DMSO per well, which dissolves the formazan crystals. Plates were incubated for 30 min, and then analyzed using a UV microplate reader (λ = 570 nm). Results are reported as a percentage cell viability compared to control (untreated) values, and fitted to a sigmoidal function using Origin Lab as a guide to the eye.
(§4) Figure S2. CD data for a) R3F3 and b) R4F4 with DPPG (concentrations indicated) .
(§5) Figure S3. Cytotoxicity profiles from MTT assays, where 161br Human fibroblasts were exposed to
(§6) (a) R3F3 and (b) R4F4 for 72 hours. Control solutions were prepared by incubating cells with complete
(§7) media. Results are reported as a percentage compared to the control solutions. Error bars are the
(§8) standard deviation of 3 biological replicates (with 3 technical replicates pe r assay). IC50 values
(§9) (vertical blue dashed lines) were calculated in Origin using sigmoidal fits to the viability data (dashed […]

in vitro = assay type: cell-based, human; conditions: human
Description: as §1, §2, §3, §4, §5, §6, §7, §8, §9

[2] = previously reported; cited from earlier work
Description: The two “blocky” surfactant-like peptides […] and […] are both able to self-assemble in aqueous solution at concentrations in excess of critical values, obtained from fluorescence probe assays. The cac = 0.3 wt % (≡ 3.2 mM) for […] is higher than that previously obtained for the compositional homologue peptide […], for which the cac = 2.3 mM.[16]

RRRFFF [R3F3]
viability of human skin fibroblasts [1]: 77%
IC50 at 72 h (in vitro): 4.31 mM

RRRRFFFF [R4F4]
viability of human skin fibroblasts [1]: 81%
IC50 at 72 h (in vitro): 2.15 mM

RFRFRF [previously studied alternating RF peptide, compositional homologue of R3F3]
cac of compositional homologue peptide [2]: 2.3 mM

RFRFRFRF [[RF]4, previously studied oligopeptide of alternating RF motifs, compositional homologue of R4F4]
cac of compositional homologue peptide [2]: 0.34 mM
